In EP3345917A1, “ANTIPROTOZOAL COMPOUNDS” (Bacoba AG, priority 2017, dated 2018) one finds IC50 data, which are given here for eight compounds.

pIC50: −log10 of the molar value. Non-standard residues stand in square brackets, D forms with d. Residues, ends and D or L forms follow the SMILES beside them. *: point of attachment. Hexenoyl(2E,4S-Me) = CC[C@H](C)/C=C/C(=O)*; Leu(3R-OH) = CC(C)[C@@H](O)[C@H](N)C(=O)O; NHCH2CH2(piperidin-1-yl) = C1CCN(CCN*)CC1; NH((S)CH(Me)CH2NMe2) = C[C@@H](CN(C)C)N*; NH(2-morpholinoethyl) = C(CN1CCOCC1)N*; Cyclopentanecarbonyl = O=C(C1CCCC1)*; Gly(octyl) = CCCCCCCC[C@H](N)C(=O)O; Lauroyl = CCCCCCCCCCCC(=O)*; Hexanoyl = CCCCCC(=O)*; Aib = CC(C)(N)C(=O)O; X12 = CCC/C=C/C(=O)*; X2 = CN(C)CCN(C)*; βAla = NCCC(=O)O

Series [1] concerns Trypanosoma brucei rhodesiense (STIB 900 strain). The experiment in a line: Alamar Blue assay against Trypanosoma brucei rhodesiense grown in axenic medium. It is filed as cell-based. To be noted: In vitro inhibition, read-out: T.b.rhod. Summed up:
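Alamar Blue-based IC50 determination, in triplicate, on axenically grown STIB 900 trypanosomes. Melarsoprol included as reference.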
On the technique in general: Alamar Blue is a resazurin reagent that responds to reducing activity.

In series [2] the test system is intracellular Leishmania donovani (L.don. InMac). The experiment in a line: Intracellular Leishmania donovani assay (L.don. InMac). To be noted: In vitro inhibition. Type of series: cell-based. From the text:
(§1) Tests were done in triplicate.

For series [3], the system named is Plasmodium falciparum. The experiment in a line: 3H-hypoxanthine incorporation assay against Plasmodium falciparum. Type of series: cell-based. Conditions: In vitro inhibition, read-out: P.falc NF5. How it is done: as §1
IC50 values were calculated by linear interpolation.

Series [4] is described as follows: Cytotoxicity assay on L6-cells (Alamar Blue). To be noted: rat, Cytotox L6, Cytotoxicity against rat myoblast cells (L6).
The test system of series [5] is Axenically grown Leishmania donovani amastigotes (strain MHOM/ET/67/L82). Put plainly: Axenic Leishmania donovani amastigote resazurin assay. It is filed as cell-based. To be noted: In vitro inhibition, read-out: L.don. ax. Summed up: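 IC50 values derive from resazurin fluorescence (ex 536 nm, em 588 nm), expressed relative to the negative control, after 2-4 hours of plate development. Axenic amastigotes of strain MHOM/ET/67/L82 were used; each test run in triplicate.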

Series [6] relates to Trypanosoma cruzi trypomastigote forms (Tulahuen strain). Put plainly: Intracellular Trypanosoma cruzi assay in L6-cells, beta-galactosidase/CPRG readout. Type of series: cell-based. Conditions: In vitro inhibition, read-out: T.cruzi. The method in brief:
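Readout was β-galactosidase cleavage of CPRG, read photometrically at 540 nm after 2–6 h colour development, giving IC50 values. Parasites: LacZ-expressing Tulahuen C2C4 strain grown in rat L6 myoblasts; run in triplicate.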

By IC50 is commonly meant the concentration that gives 50% inhibition. On to `CCCCCCCC[C@H](NC(=O)[C@@H]1CCCN1C(C)=O)C(=O)N[C@@H](CC(C)C)C(=O)NC(C)(C)C(=O)N[C@@H](CC(C)C)C(=O)N[C@@H](CC(C)C)C(=O)NC(C)(C)C(=O)NC(C)(C)C(=O)NCCC(=O)N[C@@H](C)CN(C)C` [Compound 5638, (2S)-2-{[(2S)-1-acetylpyrrolidin-2-yl]formamido}-N-[(1S)-1-[(1-{[(1S)-1-{[(1S)-1-{[1-({1-[(2-{[(2S)-1-(dimethylamino)propan-2-yl]carbamoyl}ethyl)carbamoyl]-1-methylethyl}carbamoyl)-1-methylethyl]carbamoyl}-3-methylbutyl]carbamoyl}-3-methylbutyl]carbamoyl}-1-methylethyl)carbamoyl]-3-methylbutyl]decanamide] (Ac-P[Gly(octyl)]L[Aib]LL[Aib][Aib][βAla]-{NH((S)CH(Me)CH2NMe2)}), for which the pIC50 in series [1] was 9.40; in series [2] it was 6.65; in series [3] it was 9.22; in series [5], 8.15; in series [6], 7.01. This compound also showed an IC50 at 70 h in series [4] of 634 nM.

As to `CCCCCCCC[C@H](NC(=O)[C@@H](NC(=O)[C@@H]1CCCN1C(=O)/C=C/[C@@H](C)CC)[C@H](O)C(C)C)C(=O)NC(C)(C)C(=O)N[C@@H](CC(C)C)C(=O)N[C@@H](CC(C)C)C(=O)NC(C)(C)C(=O)NC(C)(C)C(=O)NCCC(=O)N[C@@H](C)CN(C)C` [Compound 5560, (2S)-N-(1-{[(1S)-1-{[(1S)-1-{[1-({1-[(2-{[(2S)-1-(dimethylamino)propan-2-yl]carbamoyl}ethyl)carbamoyl]-1-methylethyl}carbamoyl)-1-methylethyl]carbamoyl}-3-methylbutyl]carbamoyl}-3-methylbutyl]carbamoyl}-1-methylethyl)-2-[(2S,3R)-3-hydroxy-4-methyl-2-{[(2S)-1-[(2E,4S)-4-methylhex-2-enoyl]pyrrolidin-2-yl]formamido}pentanamido]decanamide] ({Hexenoyl(2E,4S-Me)}-P[Leu(3R-OH)][Gly(octyl)][Aib]LL[Aib][Aib][βAla]-{NH((S)CH(Me)CH2NMe2)}), the pIC50 in series [1] was 9.70; in series [2], 7.60; in series [3], 8.96; in series [5], 9.10; in series [6] it was 7.46. The IC50 at 70 h in series [4] was determined as 791 nM.

Take `CCCCCCCC[C@H](NC(=O)C1CCCC1)C(=O)N[C@H](C(=O)NC(C)(C)C(=O)N[C@@H](CC(C)C)C(=O)N[C@@H](CC(C)C)C(=O)NC(C)(C)C(=O)NC(C)(C)C(=O)NCCC(=O)N[C@@H](C)CN(C)C)[C@@H](C)O` [Compound 5641, (2S)-2-(cyclopentylformamido)-N-[(1S,2R)-1-[(1-{[(1S)-1-{[(1S)-1-{[1-({1-[(2-{[(2S)-1-(dimethylamino)propan-2-yl]carbamoyl}ethyl)carbamoyl]-1-methylethyl}carbamoyl)-1-methylethyl]carbamoyl}-3-methylbutyl]carbamoyl}-3-methylbutyl]carbamoyl}-1-methylethyl)carbamoyl]-2-hydroxypropyl]decanamide] (Cyclopentanecarbonyl-[Gly(octyl)]T[Aib]LL[Aib][Aib][βAla]-{NH((S)CH(Me)CH2NMe2)}): the pIC50 in series [1] is 8.41; in series [2], 6.06; in series [3], 7.14; in series [5], 8.09; in series [6], 5.85. In series [4], the IC50 at 70 h was found to be 1670 nM.

On to `CCCCCCCC[C@H](NC(=O)[C@@H]1CCCN1C(=O)CCCCC)C(=O)N[C@@H](CC(C)C)C(=O)NC(C)(C)C(=O)N[C@@H](CC(C)C)C(=O)N[C@@H](CC(C)C)C(=O)NC(C)(C)C(=O)NC(C)(C)C(=O)NCCC(=O)N(C)CCN(C)C` [Compound 5644, (2S)-N-[(1S)-1-[(1-{[(1S)-1-{[(1S)-1-{[1-({1-[(2-{[2-(dimethylamino)ethyl](methyl)carbamoyl}ethyl)carbamoyl]-1-methylethyl}carbamoyl)-1-methylethyl]carbamoyl}-3-methylbutyl]carbamoyl}-3-methylbutyl]carbamoyl}-1-methylethyl)carbamoyl]-3-methylbutyl]-2-{[(2S)-1-hexanoylpyrrolidin-2-yl]formamido}decanamide] (Hexanoyl-P[Gly(octyl)]L[Aib]LL[Aib][Aib][βAla]-X2), for which the pIC50 was 6.68 in series [1]; 6.07 in series [2]; 7.59 in series [3]; 6.83 in series [5]; 5.83 in series [6]. In series [4], this compound had an IC50 at 70 h of 1240 nM.

Regarding `CCC/C=C/C(=O)N1CCC[C@H]1C(=O)N[C@@H](CCCCCCCC)C(=O)N[C@H](C(=O)NC(C)(C)C(=O)N[C@@H](CC(C)C)C(=O)N[C@@H](CC(C)C)C(=O)NC(C)(C)C(=O)NC(C)(C)C(=O)NCCC(=O)N[C@@H](C)CN(C)C)[C@H](O)C(C)C` [Compound 5514, (2S)-N-[(1S,2R)-1-[(1-{[(1S)-1-{[(1S)-1-{[1-({1-[(2-{[(2S)-1-(dimethylamino)propan-2-yl]carbamoyl}ethyl)carbamoyl]-1-methylethyl}carbamoyl)-1-methylethyl]carbamoyl}-3-methylbutyl]carbamoyl}-3-methylbutyl]carbamoyl}-1-methylethyl)carbamoyl]-2-hydroxy-3-methylbutyl]-2-{[(2S)-1-[(2E)-hex-2-enoyl]pyrrolidin-2-yl]formamido}decanamide] (X12-P[Gly(octyl)][Leu(3R-OH)][Aib]LL[Aib][Aib][βAla]-{NH((S)CH(Me)CH2NMe2)}), the pIC50 in series [1] was 9.70; in series [2] it was 7.01; in series [3], 9.10; in series [5] it was 9.40; in series [6], 7.70. For the same compound, the IC50 at 70 h in series [4] was determined as 316 nM.

Consider `CCCCCCCC[C@H](NC(=O)[C@@H]1CCCN1C(=O)CCCCC)C(=O)N[C@@H](CC(C)C)C(=O)NC(C)(C)C(=O)N[C@@H](CC(C)C)C(=O)N[C@@H](CC(C)C)C(=O)NC(C)(C)C(=O)NC(C)(C)C(=O)NCCC(=O)NCCN1CCCCC1` [Compound 5647, (2S)-2-{[(2S)-1-hexanoylpyrrolidin-2-yl]formamido}-N-[(1S)-3-methyl-1-[(1-methyl-1-{[(1S)-3-methyl-1-{[(1S)-3-methyl-1-{[1-methyl-1-({1-methyl-1-[(2-{[2-(piperidin-1-yl)ethyl]carbamoyl}ethyl)carbamoyl]ethyl}carbamoyl)ethyl]carbamoyl}butyl]carbamoyl}butyl]carbamoyl}ethyl)carbamoyl]butyl]decanamide] (Hexanoyl-P[Gly(octyl)]L[Aib]LL[Aib][Aib][βAla]-{NHCH2CH2(piperidin-1-yl)}), for which the pIC50 in series [1] is 8.44; in series [2] it was 7.21; in series [3], 9.22; in series [5] it was 8.52; in series [6], 7.87. This compound gave an IC50 at 70 h in series [4] of 182 nM.

On to `CCCCCCCC[C@H](NC(=O)[C@@H]1CCCN1C(=O)CCCCC)C(=O)N[C@@H](CC(C)C)C(=O)NC(C)(C)C(=O)N[C@@H](CC(C)C)C(=O)N[C@@H](CC(C)C)C(=O)NC(C)(C)C(=O)NC(C)(C)C(=O)NCCC(=O)NCCN1CCOCC1` [Compound 5646, (2S)-2-{[(2S)-1-hexanoylpyrrolidin-2-yl]formamido}-N-[(1S)-3-methyl-1-[(1-methyl-1-{[(1S)-3-methyl-1-{[(1S)-3-methyl-1-{[1-methyl-1-({1-methyl-1-[(2-{[2-(morpholin-4-yl)ethyl]carbamoyl}ethyl)carbamoyl]ethyl}carbamoyl)ethyl]carbamoyl}butyl]carbamoyl}butyl]carbamoyl}ethyl)carbamoyl]butyl]decanamide] (Hexanoyl-P[Gly(octyl)]L[Aib]LL[Aib][Aib][βAla]-{NH(2-morpholinoethyl)}), for which the pIC50 in series [1] is 6.67; in series [2] it was 7.00; in series [3], 7.65; in series [5], 8.80; in series [6], 6.41. The same compound registered an IC50 at 70 h in series [4] of 1460 nM.

For `CCCCCCCCCCCC(=O)N1CCC[C@H]1C(=O)N[C@@H](CCCCCCCC)C(=O)N[C@@H](CC(C)C)C(=O)NC(C)(C)C(=O)N[C@@H](CC(C)C)C(=O)N[C@@H](CC(C)C)C(=O)NC(C)(C)C(=O)NC(C)(C)C(=O)NCCC(=O)N[C@@H](C)CN(C)C` [Compound 5651, (2S)-N-[(1S)-1-[(1-{[(1S)-1-{[(1S)-1-{[1-({1-[(2-{[(2S)-1-(dimethylamino)propan-2-yl]carbamoyl}ethyl)carbamoyl]-1-methylethyl}carbamoyl)-1-methylethyl]carbamoyl}-3-methylbutyl]carbamoyl}-3-methylbutyl]carbamoyl}-1-methylethyl)carbamoyl]-3-methylbutyl]-2-{[(2S)-1-dodecanoylpyrrolidin-2-yl]formamido}decanamide] (Lauroyl-P[Gly(octyl)]L[Aib]LL[Aib][Aib][βAla]-{NH((S)CH(Me)CH2NMe2)}), the pIC50 in series [1] is 8.48; in series [2] it was 6.15; in series [3], 9.10; in series [5], 7.28; in series [6] it was 5.86. This compound showed an IC50 at 70 h in series [4] of 498 nM.
